According to patent US20090317455A1, “REVERSE TARGETING LIPID VESICLE” (ASTELLAS PHARMA INC., priority 2006, published 2009):

Settings: 10 mg/kg adriamycin, intravenous (tail vein) on Days 8, 10 and 12; compared with Vehicle; FIG. 1(A)
Method: The presence of weight loss as a side effect of adriamycin encapsulated in the liposome was assessed. […] Each of the drugs was intravenously (tail vein) administered to each mouse group on Days 8, 10 and 12 following the sensitization day (Day 0) (total of three doses). […] The 10 mg/kg (weight) adriamycin is a dose that gives medicinal benefits as a cancer chemotherapeutic agent.
Meanwhile, weight loss as a side effect was also assessed.
Each of the drugs was intravenously (tail vein) administered to each mouse group on Days 8, 10 and 12 following the sensitization day (Day 0) (total of three doses).

## COc1cccc2c1C(=O)c1c(O)c3c(c(O)c1C2=O)C[C@@](O)(C(=O)CO)C[C@@H]3O[C@H]1C[C@H](N)[C@H](O)[C@H](C)O1 [adriamycin]
  weight loss as a side effect: obvious weight loss
